Paper PMC3368272, “The host-seeking inhibitory peptide, Aea-HP-1, is made in the male accessory gland and transferred to the female during copulation” (Peptides, 2012)
Square brackets hold non-standard residues; d marks the D form. Peptide text beside a SMILES is read from it. Hyp = O=C(O)[C@@H]1C[C@@H](O)CN1; pGlu = O=C1CC[C@@H](C(=O)O)N1

Experiments:
[1] = molecular target: T1, D. melanogaster sex peptide receptor (SPR) (Drosophila melanogaster, UniProt Q8SWR3); assay: Ligand-mediated receptor activation, CHO-K1 cells expressing aequorin; assay type: cell-based; conditions: D. melanogaster SPR in CHO cells with aequorin and Gαqi; up to 10 μM; n = 4
T1 construct: expressed in transfected cells; host or cells: CHO-K1 cells co-expressing aequorin and chimaeric G-protein Gαqi
T1 sequence (Q8SWR3 1-435): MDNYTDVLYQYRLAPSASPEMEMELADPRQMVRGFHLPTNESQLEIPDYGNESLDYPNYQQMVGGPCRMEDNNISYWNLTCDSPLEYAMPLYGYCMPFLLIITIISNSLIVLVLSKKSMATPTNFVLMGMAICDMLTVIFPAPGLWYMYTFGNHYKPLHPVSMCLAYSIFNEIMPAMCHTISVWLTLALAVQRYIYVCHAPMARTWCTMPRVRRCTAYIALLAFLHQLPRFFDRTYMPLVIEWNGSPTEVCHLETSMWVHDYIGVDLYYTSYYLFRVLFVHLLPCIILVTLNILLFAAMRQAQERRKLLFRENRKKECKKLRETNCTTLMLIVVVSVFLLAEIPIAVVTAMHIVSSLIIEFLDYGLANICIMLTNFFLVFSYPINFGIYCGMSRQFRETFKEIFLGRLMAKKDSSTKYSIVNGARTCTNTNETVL
Experimental: (§1) Ligand-mediated receptor activation was measured using an established expression system employing CHO-K1 cells expressing the Ca^2+ reporter aequorin [42]. The construction of the expression constructs for D. melanogaster sex peptide receptor (SPR) and A. aegypti SPR and the measurement of the luminescent signals have been reported previously.
(§2) Fig. 6 Aea-HP-1 is not an active agonist for SPRs from D. melanogaster (A) and A. aegypti (B). Luminescent responses of CHO cells expressing SPR, aequorin and a chimaeric G-protein, Gαqi, and treated with varying concentrations of Aea-HP-1 and SP. Each data point is mean ± s.d. (n = 4).

A. aegypti SPR = assay: as above; assay type: cell-based, Aedes aegypti; conditions: A. aegypti SPR in CHO cells with aequorin and Gαqi; up to 10 μM; n = 4
Experimental: as §1, §2

[2] = test system: virgin D. melanogaster females; assay: Post-mating response (receptivity) after injection into virgin females; assay type: in vivo, Drosophila melanogaster; conditions: injected into the hemocoel of virgin D. melanogaster females; receptivity assayed 5 h after injection with naive Canton-S males
Experimental: Injections of either Aea-HP-1 or SP into the abdomen of virgin D. melanogaster females were performed as described previously. After injection, females were transferred to individual food vials and were tested after 5 h for receptivity with a naive Canton S male.
Receptivity of virgin females assayed 5 h after injection with either synthetic peptides (Aea-HP-1 or SP) or Ringer's solution alone. Wild type W1118 females were injected and assayed with naïve Canton-S males. Numbers in parenthesis indicate numbers of animal assayed. n.s., p > 0.05; ***p < 0.0001, one-way ANOVA (Tukey post-test) compared with Ringer treatment.

[3] = test system: virgin A. aegypti females; assay: Mating rejection after injection into the hemocoel of virgin females; assay type: in vivo, Aedes aegypti; conditions: 0.1–1 μg injected into the hemocoel of virgin A. aegypti females; data not presented
Description: Transplantation of MAGs, or injection of gland extracts, into female A. aegypti can elicit a variety of post-mating responses including refractoriness to re-mating and inhibition of host-seeking and biting behavior [13]. […] This failure might be due to lack of accessibility and the known rapid catabolism of Aea-HP-1 in the hemolymph. D. melanogaster SP has wide-ranging effects on physiology and behavior some of which are mediated primarily through activation of the SP/MIP receptor that is expressed in sensory neurons of the uterus. The D. melanogaster SP receptor and its A. aegypti orthologue are also strongly activated by myoinhibitory peptides (MIPs), a family of peptides that are found in species from different insect orders and are considered to be the ancestral ligands for these receptors [[19,33,41]]. The receptors are also activated by unidentified ligands present in whole body extract of adult A. aegypti. Although Aea-HP-1 has no obvious structural similarity to either SP or MIP, the promiscuity of the SP/MIP receptor led us to consider the possibility that the head peptide might also be an agonist of the MIP receptor.

[4] = parameters: species or system Aedes aegypti; conditions: in vivo
Experimental: Tissues were dissected from adult mosquitoes in phosphate buffered saline (PBS, MP Biomedicals, Cambridge, UK) and collected into acidified methanol (86%, v/v, aqueous methanol and 5% v/v glacial acetic acid). MAGs and male seminal vesicles (SVs) (5 pairs per 100 μl) were typically prepared for analysis by infusing whole tissues in acidified methanol for 30 min, then centrifuging for 10 min at 13,000 rpm in a bench-top microcentrifuge, retaining the supernatant. Homogenization was avoided to provide a cleaner sample for analysis. […]
Mosquito tissues were analyzed for Aea-HP-1 by subjecting either acidified methanol extracts or intact tissues to MALDI/TOF-MS analysis. […]
MALDI/TOF-MS was used to analyze methanol extracts for the presence of Aea-HP-1 in the reproductive tract (uterus, spermathecae, bursa copulatrix, oviduct, but not the ovary) of individual virgin and post-mated females obtained by introducing a single female into a cage of 50 males until mating was observed (<5 min). […] In contrast, the molecular ions for Aea-HP-1 (m/z, 1227.9) and Aea-HP-3 (m/z, 1211.9) were detected in methanol extracts of tissues from nine out of thirteen post-copulated females. Extracts were also analyzed quantitatively by ELISA using synthetic Aea-HP-1 as a standard and the results were compared to the amount of material found in extracts of MAGs dissected from virgin males. […]

[5] = mosquito hemolymph, after 30 min; cited from earlier work
Description: (§3) Aea-HP-1 has been tested for myogenic and behavior modifying activity in A. aegypti.

[6] = test system: isolated oviduct and hindgut of female mosquitoes; conditions: female A. aegypti tissues; cited from earlier work
Description: as §3

non-öogenic females = conditions: cited from earlier work
Description: as §3

CC(C)C[C@H](NC(=O)[C@H](CO)NC(=O)[C@@H]1C[C@@H](O)CN1C(=O)[C@@H]1CCCN1C(=O)[C@H](CCCNC(=N)N)NC(=O)[C@@H]1CCC(=O)N1)C(=O)N[C@@H](CCCCN)C(=O)N[C@H](C(=O)N[C@@H](CCCNC(=N)N)C(=O)N[C@@H](Cc1ccccc1)C(N)=O)[C@@H](C)O [Aea-HP-1, pERPhPSLKTRFamide] ([pGlu]RP[Hyp]SLKTRF-NH2)
activation of SP/MIP receptor (luminescent response) [1]: did not activate | activation of SP/MIP receptor (luminescent response) (A. aegypti SPR): did not activate | rejection of male advances (post-mating response) [2]: did not elicit rejection of male advances | induction of mating rejection [3]: not been able to show that Aea-HP-1 can induce mating rejection | persistence in the female reproductive tract after copulation [4]: less than 2 h | peptide remaining in the circulation [5]: around 17% | stimulation of contractions of isolated oviduct and hindgut [6]: did not stimulate contractions | effect on host-seeking behavior (non-öogenic females; injected into female A. aegypti): inhibiting host-seeking behavior | duration of reduction in host-seeking (non-öogenic females; injected into non-öogenic female A. aegypti): up to 5 h
